Assay results reported in patent publication US20250019386A1, “PYRROLO[1,2-b]-2-PYRIDAZINONE COMPOUNDS AS 5-HT4 RECEPTOR AGONISTS” (SUVEN LIFE SCIENCES LIMITED, priority 2022, published 2025).

Columns and labels:
5-HT4 receptors = 5-HT4 receptors (Homo sapiens (Human), UniProt Q13639); assay: Determination of EC50 values for 5-HT4 receptor (pCRE-Luc reporter assay); type: cell-based; settings: CHO cells expressing recombinant human 5-HT4 receptor and pCRE-Luc reporter; 4 h incubation; luciferase activity
Experimental: A stable CHO cell line expressing recombinant human 5-HT4 receptor and pCRE-Luc reporter system was used for cell-based assay. The assay offers a non-radioactive based approach to determine binding of a compound to GPCRs. In this specific assay, the level of intracellular cyclic AMP, which is modulated by activation, or inhibition of the receptor is measured. The recombinant cells harbor luciferase reporter gene under the control of cAMP response element.
The above cells were grown in 96 well clear bottom white plates in Ham's F12 medium containing 10% fetal bovine serum. Prior to the addition of compounds or standard agonist, cells were serum starved overnight. Increasing concentrations of test compounds were added to the cells in OptiMEM medium. The incubation was continued in CO2 incubator at 37° C. with 5% CO2 conditions for 4 h. Medium was removed and cells were washed with phosphate buffered saline. The cells were lysed and luciferase activity was measured in a Luminometer. Concentration-response data was generated using the luciferase assay, following incubation of cells with receptor ligands, were analyzed by subtracting basal levels (i.e. with medium alone), then normalizing values as a percentage of controls (endogenous agonist serotonin (10 μM)). […] EC50 values of the compounds were defined as the concentration required in stimulating the luciferase activity by 50%.

[1] = Rat brain penetration study; type: in vivo; settings: brain/plasma, oral (gavage) 3 mg/kg, male Wistar rats, brain concentrations below LLOQ taken as zero, read-out: Single dose Brain Penetration (Cb/Cp)
Experimental: Male Wistar rats (225±25 g) were used as experimental animals. Three animals were housed in each cage. Animals were given water and food ad libitum throughout the experiment and maintained on a 12 h light/dark cycle.
Brain penetration was determined in discrete manner in rats. One day prior to dosing day, male Wistar rats were acclimatized. After acclimatization, the rats were grouped according to their weight. In each group, 3 animals were kept in individual cages and allowed free access to food and water. At each time point (0.5, 1, and 2 h) n=3 animals were used.
The compounds of formula (I) were suitably preformulated and administered orally at (free base equivalent) 3 mg/kg. Blood samples were collected via, cardiac puncture by using isoflurane anesthesia. The animals were sacrificed to collect brain tissue. Plasma was separated and brain samples were homogenized and stored frozen at −20° C. until analysis.
The concentrations of the compounds of formula (I) were quantified in plasma and brain homogenate by qualified LC-MS/MS method using a suitable extraction technique. The compounds of formula (I) were quantified in the calibration range of 1-2000 ng/mL in plasma and brain homogenate. Study samples were analyzed using calibration samples in the batch and quality control samples spread across the batch. Extent of brain-plasma ratio was calculated (Cb/Cp). Brain concentrations were found below LLOQ and a value of zero was considered for calculation purposes.

[2] = Rat pharmacokinetic study; type: in vivo; settings: male Wistar rats, plasma
Experimental: Male Wistar rats (250±50 g) were used as experimental animals. Animals were housed individually in polypropylene cages. Two days prior to study, rats were anesthetized with isoflurane for surgical placement of jugular vein catheter. Rats were randomly divided for oral (3 mg/kg and 10 mL/kg as dose volume) and intravenous (1 mg/kg and 2 mL/kg as dose volume) dosing (n=3/group) and fasted overnight before oral dosing (p.o.). However, rats allocated to intravenous dosing food and water was provided ad libitum.
Intravenous formulation was prepared by using water for injection as vehicle. For Oral, formulation was prepared by using reagent grade water as vehicle. The dose formulations were prepared freshly on the day of dosing.
After dosing of animal, each time point a 200 μL of blood sample was collected through jugular vein and replenished with an equivalent volume of normal saline. The collected blood sample was transferred into a labeled eppendorf tube containing 10 μL of sodium heparin (1000 IU/mL) as an anticoagulant. Typically blood samples were collected at following time points: 0.08, 0.25, 0.5, 1, 2, 4, 6, 8, and 24 h post dose. Blood was centrifuged at 4000 rpm for 10 min. Plasma was separated and stored frozen at −80° C. until analysis. The concentrations of the test compounds were quantified in plasma by qualified LC-MS/MS method using a suitable extraction technique. The test compounds were quantified in the calibration range around 1-2000 ng/mL in plasma. Study samples were analyzed using calibration samples in the batch and quality control samples spread across the batch.
Pharmacokinetic parameters Cmax, AUCt, t1/2 and bioavailability were calculated by non-compartmental model using standard non-compartmental model by using Phoenix WinNonlin 6.4 version Software.

5-HT4 receptors, sequence (Q13639 whole entry): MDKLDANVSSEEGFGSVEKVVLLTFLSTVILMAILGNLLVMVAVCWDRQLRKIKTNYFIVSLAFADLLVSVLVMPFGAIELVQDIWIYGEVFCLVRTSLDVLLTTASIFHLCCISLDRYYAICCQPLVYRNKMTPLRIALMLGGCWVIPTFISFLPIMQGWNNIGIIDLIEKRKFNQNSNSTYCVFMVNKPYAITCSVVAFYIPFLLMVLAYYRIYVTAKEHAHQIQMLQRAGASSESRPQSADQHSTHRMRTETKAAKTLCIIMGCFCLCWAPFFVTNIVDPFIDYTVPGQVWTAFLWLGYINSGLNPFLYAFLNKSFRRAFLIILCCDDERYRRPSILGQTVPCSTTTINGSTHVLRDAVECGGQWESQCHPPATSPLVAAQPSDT

Structure (SMILES) | EC50 (5-HT4 receptors) | also measured
CC(C)n1c(=O)c(C(=O)NC2CC3CCC(C2)N3CC(O)CN(C)S(C)(=O)=O)cc2cccn21 (racemic) [Example 5, Racemic-N-{8-[2-Hydroxy-3-[(N-methyl)methanesulfonamido]propyl]-8-azabicyclo[3.2.1]oct-3-yl} [1-isopropyl-2-oxo-1,2-dihydro pyrrolo[1,2-b]pyridazine]-3-carboxamide] | 3.1 nM | –
CC(C)n1c(=O)c(C(=O)NC2CC3CCC(C2)N3CC(O)CN(C)S(C)(=O)=O)cc2cccn21 (racemic) [Example 6, Racemic-N-{8-[2-Hydroxy-3-[(N-methyl)methanesulfonamido]propyl]-8-azabicyclo[3.2.1]oct-3-yl} [1-isopropyl-2-oxo-1,2-dihydro pyrrolo[1,2-b]pyridazine]-3-carboxamide L(+)-tartarate] | 3.3 nM | –
CC(C)n1c(=O)c(C(=O)NC2CC3CCC(C2)N3C[C@@H](O)CN(C)S(C)(=O)=O)cc2cccn21 (single isomer, unassigned) [Example 1] | 2 nM | –
CC(C)n1c(=O)c(C(=O)NC2CC3CCC(C2)N3C[C@H](O)CN(C)S(C)(=O)=O)cc2cccn21 (single isomer, unassigned) [Example 3] | 9 nM | –
CC(C)n1c(=O)c(C(=O)NC2CC3CCC(C2)N3C[C@H](O)CN(C)S(C)(=O)=O)cc2cccn21.O=C(O)C(O)C(O)C(=O)O (single isomer, unassigned) [Example 4] | 10 nM | Kp [1]: 0; AUC(0-t) ([2]; intravenous (bolus), 1 mg/kg): 124 ± 7.9 ng·h/mL; half-life ([2]; intravenous (bolus), 1 mg/kg): 102 ± 18 min; AUC(0-t) ([2]; oral (gavage), 3 mg/kg): 44 ± 22 ng·h/mL; Cmax ([2]; oral (gavage), 3 mg/kg): 11 ± 6.6 ng/mL; bioavailability ([2]; oral 3 mg/kg vs intravenous 1 mg/kg): 12 ± 5.9%
CC(C)n1c(=O)c(C(=O)NC2CC3CCC(C2)N3C[C@@H](O)CN(C)S(C)(=O)=O)c(O)c2cccn21 (stereo partly drawn) [Example 7, (R)-N-{8-[2-Hydroxy-3-[(N-methyl)methanesulfonamido]propyl]-8-azabicyclo[3.2.1]oct-3-yl} [4-hydroxy-1-isopropyl-2-oxo-1,2-dihydro pyrrolo[1,2-b]pyridazine]-3-carboxamide] | 10.1 nM | –
CC(C)n1c(=O)c(C(=O)NC2CC3CCC(C2)N3C[C@@H](O)CN(C)S(C)(=O)=O)c(O)c2cccn21 (stereo partly drawn) [Example 8, (R)-N-{8-[2-Hydroxy-3-[(N-methyl)methanesulfonamido]propyl]-8-azabicyclo[3.2.1]oct-3-yl} [4-hydroxy-1-isopropyl-2-oxo-1,2-dihydro pyrrolo[1,2-b]pyridazine]-3-carboxamide L-(+)-tartarate] | 6.1 nM | –
CC(C)n1c(=O)c(C(=O)NC2CC3CCC(C2)N3C[C@@H](O)CNS(C)(=O)=O)cc2cccn21 (stereo partly drawn) [Example 14, (R)-N-{8-[2-Hydroxy-3-(methanesulfonamido)propyl]-8-azabicyclo[3.2.1]oct-3-yl} [1-isopropyl-2-oxo-1,2-dihydro pyrrolo[1,2-b]pyridazine]-3-carboxamide L-(+)-tartarate] | 6.3 nM | –
CC(=O)N(C)C[C@H](O)CN1C2CCC1CC(NC(=O)c1cc3cccn3n(C(C)C)c1=O)C2 (stereo partly drawn) [Example 15, (R)-N-{8-[2-Hydroxy-3-[(N-methyl)acetamido]propyl]-8-azabicyclo[3.2.1]oct-3-yl} [1-isopropyl-2-oxo-1,2-dihydro pyrrolo[1,2-b]pyridazine]-3-carboxamide] | 8 nM | –
CC(C)n1c(=O)c(C(=O)NC2CC3CCC(C2)N3C[C@@H](O)CN2CCN(S(C)(=O)=O)CC2)cc2cccn21 (stereo partly drawn) [Example 18, (R)-N-{8-[2-Hydroxy-3-[(1-methanesulfonylpiperazin)-4-yl]propyl]-8-azabicyclo[3.2.1]oct-3-yl} [1-isopropyl-2-oxo-1,2-dihydro pyrrolo[1,2-b]pyridazin]-3-carboxamide L(+)tartarate] | 2.4 nM | –
CC(C)n1c(=O)c(C(=O)NC2CC3CCC(C2)N3C[C@@H](O)CN2CCN(S(C)(=O)=O)CC2)c(O)c2cccn21 (stereo partly drawn) [Example 20, (R)-N-{8-[2-Hydroxy-3-[(1-methanesulfonylpiperazin)-4-yl]propyl]-8-azabicyclo[3.2.1]oct-3-yl} [4-hydroxy-1-isopropyl-2-oxo-1,2-dihydro pyrrolo[1,2-b]pyridazin]-3-carboxamide L-(+)-tartarate] | 14 nM | –
CC(C)n1c(=O)c(C(=O)NC2CC3CCC(C2)N3CCCN(C)S(C)(=O)=O)cc2cccn21 (stereo not shown) [Example 22, N-{8-[3-[(N-Methyl)methanesulfonamido]propyl]-8-azabicyclo[3.2.1]oct-3-yl} [1-isopropyl-2-oxo-1,2-dihydro pyrrolo[1,2-b]pyridazine]-3-carboxamide] | 58 nM | –
CC(C)n1c(=O)c(C(=O)NC2CC3CCC(C2)N3CCCNS(C)(=O)=O)cc2cccn21 [Example 24, N-{8-[3-[methanesulfonamido]propyl]-8-azabicyclo[3.2.1]oct-3-yl} [1-isopropyl-2-oxo-1,2-dihydro pyrrolo[1,2-b]pyridazine]-3-carboxamide L-(+)-tartarate] | 11 nM | –
CC(C)n1c(=O)c(C(=O)NC2CC3CCC(C2)N3CCCNS(=O)(=O)C(C)C)cc2cccn21 (stereo not shown) [Example 25, N-{8-[3-Isopropylsulfonylaminopropyl]-8-azabicyclo[3.2.1]oct-3-yl} [1-isopropyl-2-oxo-1,2-dihydro pyrrolo[1,2-b]pyridazin]-3-carboxamide] | 13 nM | –
CC(C)n1c(=O)c(C(=O)NC2CC3CCC(C2)N3CCNS(=O)(=O)C(C)C)cc2cccn21 (stereo not shown) [Example 29, N-{8-[2-Isopropylsulfonylaminoethyl]-8-azabicyclo[3.2.1]oct-3-yl} [1-isopropyl-2-oxo-1,2-dihydro pyrrolo[1,2-b]pyridazin]-3-carboxamide] | 16 nM | –
CC(=O)NCCCN1C2CCC1CC(NC(=O)c1cc3cccn3n(C(C)C)c1=O)C2 (stereo not shown) [Example 31, N-{8-[3-Acetamidopropyl]-8-azabicyclo[3.2.1]oct-3-yl} [1-isopropyl-2-oxo-1,2-dihydro pyrrolo[1,2-b]pyridazin]-3-carboxamide] | 35.1 nM | –
COC(=O)NCCCN1C2CCC1CC(NC(=O)c1cc3cccn3n(C(C)C)c1=O)C2 (stereo not shown) [Example 33, N-{8-[3-Carbomethoxyaminopropyl]-8-azabicyclo[3.2.1]oct-3-yl} [1-isopropyl-2-oxo-1,2-dihydro pyrrolo[1,2-b]pyridazin]-3-carboxamide] | 12 nM | –
COC(=O)NCCN1C2CCC1CC(NC(=O)c1cc3cccn3n(C(C)C)c1=O)C2 (stereo not shown) [Example 35, N-{8-[2-Carbomethoxyaminomethyl]-8-azabicyclo[3.2.1]oct-3-yl} [1-isopropyl-2-oxo-1,2-dihydro pyrrolo[1,2-b]pyridazin]-3-carboxamide] | 12 nM | –
CC(=O)N1CCN(CCN2C3CCC2CC(NC(=O)c2cc4cccn4n(C(C)C)c2=O)C3)CC1 [Example 38, N-{8-[2-(4-Acetylpiperazin-1-yl)ethyl]-8-azabicyclo[3.2.1]oct-3-yl} [1-isopropyl-2-oxo-1,2-dihydro pyrrolo[1,2-b]pyridazine]-3-carboxamide L-(+)-tartrate] | 15.4 nM | –
